# How the values were obtained:
# [1] = Mucosal to serosal permeability through rabbit colon in vitro; format: in vitro ADME
# [2] = cited from earlier work
# [3] = Flow through dissolution of granules with pH gradient; format: physicochemical; conditions: for in vitro dissolution profile (in words): compared to the monomethanesulfonate salt (granules); for Percent of Eprosartan dissolved from the granules: flow through 8 mL/min, 37° C.
# Method: A flow through dissolution apparatus at 8 mL/min flow rate, 37° C. and the following pH gradient
"increase of mucosal to serosal permeability through rabbit colon ([1]; in the presence of L-arginine as a solution, compared to the monomethanesulfonate alone) [%]",in vitro permeability through rabbit colon (in words) ([1]; compared to the monomethanesulfonate salt),in vitro dissolution profile (in words) [3],in vitro dissolution profile (in words) ([3]; listed as arginine charge-neutralization-complex),"Percent of Eprosartan dissolved from the granules ([3]; time 0 min, pH gradient) [%]",Percent of Eprosartan dissolved from the granules ([3]; time 45 min (pH 1.2 SGF step)) [%],Percent of Eprosartan dissolved from the granules ([3]; time 90 min (pH 3.0 step)) [%],Percent of Eprosartan dissolved from the granules ([3]; time 120 min (pH 4.0 step)) [%],Percent of Eprosartan dissolved from the granules ([3]; time 150 min (pH 5.0 step)) [%],Percent of Eprosartan dissolved from the granules ([3]; time 180 min (pH 6.0 step)) [%],Percent of Eprosartan dissolved from the granules ([3]; time 225 min (pH 7.5 step)) [%],SMILES,bioavailability (in words) ([2]; human),mean absolute bioavailability ([2]; human),"time to maximum concentration ([2]; human, fed state) [h]",safety and tolerability in human clinical studies ([2]; up to doses of 800 mg per day)
50,,,,,,,,,,,CCCCc1ncc(/C=C(\Cc2cccs2)C(=O)O)n1Cc1ccc(C(=O)O)cc1 [(E)-α-[2-n-Butyl-1-[(4-carboxyphenyl)methyl]-1H-imidazol-5-yl]methylene-2-thiophenepropionic acid monomethanesulfonate],low and variable bioavailability,approximately 13%,2.5 to 4,safe and well tolerated
,increased in vitro permeability,improved in vitro dissolution profile,better dissolution profile,0.00,32.81,35.82,36.24,37.44,46.70,100.63,"CCCCc1ncc(/C=C(\Cc2cccs2)C(=O)O)n1Cc1ccc(C(=O)O)cc1.N=C(N)NCCC[C@H](N)C(=O)O [Arginyl charge-neutralization-complex, (E)-α-[2-n-butyl-1-[(4-carboxyphenyl)methyl]-1H-imidazol-5-yl]methylene-2-thiophenepropionic acid arginyl charge-neutralization-complex]",,,,

# Reference: US6630498B2 (SmithKline Beecham Corporation, priority 1997, dated 2003)
